Measured values as given in PubChem BioAssay (NCI).
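Here, GI50 denotes the concentration required for 50% inhibition of growth. TGI denotes the concentration required for complete inhibition of growth.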

Tests used:
Test in all cases: NCI tumour cell line growth inhibition, 384-well format
786-0 renal = system: 786-0 renal
A498 renal = system: A498 renal
A549 NSCLC = system: A549 NSCLC
CAKI-1 renal = system: CAKI-1 renal
CCRF-CEM leukemia = system: CCRF-CEM leukemia
COLO 205 colon = system: COLO 205 colon
DU-145 prostate = system: DU-145 prostate
EKVX NSCLC = system: EKVX NSCLC
HCC-2998 colon = system: HCC-2998 colon
HCT-15 colon = system: HCT-15 colon
HL-60(TB) leukemia = system: HL-60(TB) leukemia
HOP-92 NSCLC = system: HOP-92 NSCLC
HS 578T breast = system: HS 578T breast
HT29 colon = system: HT29 colon
IGROV1 ovarian = system: IGROV1 ovarian
K-562 leukemia = system: K-562 leukemia
KM12 colon = system: KM12 colon
LOX IMVI melanoma = system: LOX IMVI melanoma
M14 melanoma = system: M14 melanoma
MALME-3M melanoma = system: MALME-3M melanoma
MCF7 breast = system: MCF7 breast
MDA-MB-231 breast = system: MDA-MB-231 breast
MDA-MB-435 melanoma = system: MDA-MB-435 melanoma
MDA-MB-468 breast = system: MDA-MB-468 breast
MOLT-4 leukemia = system: MOLT-4 leukemia
NCI-H322M lung = system: NCI-H322M lung
NCI-H460 NSCLC = system: NCI-H460 NSCLC
NCI/ADR-RES ovarian = system: NCI/ADR-RES ovarian
OVCAR-3 ovarian = system: OVCAR-3 ovarian
OVCAR-4 ovarian = system: OVCAR-4 ovarian
OVCAR-5 ovarian = system: OVCAR-5 ovarian
OVCAR-8 ovarian = system: OVCAR-8 ovarian
PC-3 prostate = system: PC-3 prostate
RPMI-8226 leukemia = system: RPMI-8226 leukemia
RXF 393 renal = system: RXF 393 renal
SF-268 CNS = system: SF-268 CNS
SF-295 CNS = system: SF-295 CNS
SF-539 CNS = system: SF-539 CNS
SK-MEL-28 melanoma = system: SK-MEL-28 melanoma
SK-MEL-5 melanoma = system: SK-MEL-5 melanoma
SN12C renal = system: SN12C renal
SNB-19 CNS = system: SNB-19 CNS
SNB-75 CNS = system: SNB-75 CNS
SR leukemia = system: SR leukemia
SW-620 colon = system: SW-620 colon
T-47D breast = system: T-47D breast
TK-10 renal = system: TK-10 renal
U251 glioblastoma = system: U251 glioblastoma
UO-31 renal = system: UO-31 renal

## CCc1c(C#N)c(S[C@@H](C(N)=O)c2ccccc2)nc(N(C)C)c1C#N
786-0 renal
  GI50: > 100 µM
  TGI: > 100 µM
A498 renal
  GI50: > 100 µM
  TGI: > 100 µM
A549 NSCLC
  GI50: > 100 µM
  TGI: > 100 µM
CAKI-1 renal
  GI50: > 100 µM
  TGI: > 100 µM
CCRF-CEM leukemia
  GI50: > 100 µM
  TGI: > 100 µM
COLO 205 colon
  GI50: > 100 µM
  TGI: > 100 µM
DU-145 prostate
  GI50: > 100 µM
  TGI: > 100 µM
EKVX NSCLC
  GI50: > 100 µM
  TGI: > 100 µM
HCC-2998 colon
  GI50: > 100 µM
  TGI: > 100 µM
HCT-15 colon
  GI50: > 100 µM
  TGI: > 100 µM
HL-60(TB) leukemia
  GI50: > 100 µM
  TGI: > 100 µM
HOP-92 NSCLC
  GI50: 10.6 µM
  TGI: > 100 µM
HS 578T breast
  GI50: 4.58 µM
  TGI: > 100 µM
HT29 colon
  GI50: > 100 µM
  TGI: > 100 µM
IGROV1 ovarian
  GI50: > 100 µM
  TGI: > 100 µM
K-562 leukemia
  GI50: > 100 µM
  TGI: > 100 µM
KM12 colon
  GI50: > 100 µM
  TGI: > 100 µM
LOX IMVI melanoma
  GI50: > 100 µM
  TGI: > 100 µM
M14 melanoma
  GI50: > 100 µM
  TGI: > 100 µM
MALME-3M melanoma
  GI50: 38.1 µM
  TGI: > 100 µM
MCF7 breast
  GI50: > 100 µM
  TGI: > 100 µM
MDA-MB-231 breast
  GI50: 37.7 µM
  TGI: > 100 µM
MDA-MB-435 melanoma
  GI50: > 100 µM
  TGI: > 100 µM
MDA-MB-468 breast
  GI50: > 100 µM
  TGI: > 100 µM
MOLT-4 leukemia
  GI50: > 100 µM
  TGI: > 100 µM
NCI-H322M lung
  GI50: > 100 µM
  TGI: > 100 µM
NCI-H460 NSCLC
  GI50: > 100 µM
  TGI: > 100 µM
NCI/ADR-RES ovarian
  GI50: > 100 µM
  TGI: > 100 µM
OVCAR-3 ovarian
  GI50: > 100 µM
  TGI: > 100 µM
OVCAR-4 ovarian
  GI50: > 100 µM
  TGI: > 100 µM
OVCAR-5 ovarian
  GI50: > 100 µM
  TGI: > 100 µM
OVCAR-8 ovarian
  GI50: 3.77 µM
  TGI: > 100 µM
PC-3 prostate
  GI50: > 100 µM
  TGI: > 100 µM
RPMI-8226 leukemia
  GI50: > 100 µM
  TGI: > 100 µM
RXF 393 renal
  GI50: 2.31 µM
  TGI: 6.06 µM
SF-268 CNS
  GI50: > 100 µM
  TGI: > 100 µM
SF-295 CNS
  GI50: 3.83 µM
  TGI: > 100 µM
SF-539 CNS
  GI50: > 100 µM
  TGI: > 100 µM
SK-MEL-28 melanoma
  GI50: > 100 µM
  TGI: > 100 µM
SK-MEL-5 melanoma
  GI50: > 100 µM
  TGI: > 100 µM
SN12C renal
  GI50: > 100 µM
  TGI: > 100 µM
SNB-19 CNS
  GI50: > 100 µM
  TGI: > 100 µM
SNB-75 CNS
  GI50: 26.4 µM
  TGI: 76.8 µM
SR leukemia
  GI50: 3.05 µM
  TGI: > 100 µM
SW-620 colon
  GI50: > 100 µM
  TGI: > 100 µM
T-47D breast
  GI50: > 100 µM
  TGI: > 100 µM
TK-10 renal
  GI50: > 100 µM
  TGI: > 100 µM
U251 glioblastoma
  GI50: > 100 µM
  TGI: > 100 µM
UO-31 renal
  GI50: > 100 µM
  TGI: > 100 µM
